# “Also recorded” adds a separate entry of the source.
# Legend:
# normal rats = assay: Cardiorenal actions after intravenous bolus in anesthetized normal rats; assay type: in vivo, Wistar rats; conditions: for MAP mean arterial pressure / HR heart rate / RAP right atrial pressure / UKV urine potassium excretion / UNaV urine sodium excretion / UV urine volume / UcGMPV urine cGMP volume / PcGMP plasma cGMP: mean ± SEM; for MAP mean arterial pressure: n = 4
# Method: (§1) The results obtained are expressed as the means ±SEM. In organ chamber studies, n equals the number of dogs from which rings were taken. Rings with and without endothelium were studied in parallel, and Student's t-test for unpaired observations was used to determine statistical significance among the responses of rings with and without endothelium and between responses of arteries and veins. In rat studies, the data were analyzed using ANOVA for repeated measures followed by Fisher's least significant difference test when appropriate within the group. Data between groups were analyzed by Student's unpaired t-test. Statistical significance was determined at p<0.05.
# Experiments were conducted in accordance with the Animal Welfare Act. Wistar rats and spontaneously hypertensive rats (SHR) (400 g; Harlan Sprague-Dawley, Indianapolis, Ind.) were anesthetized with Inactin (100 mg/kg; intraperitoneal; BYK Gulden, Konstanz, Germany). The body temperature was maintained between 36° and 38° C. by a heating pad. Tracheostomy was performed; however, the animals were not artificially ventilated. Polyethylene catheters (PE-50; Becton Dickinson Co., Parsippany, N.J.) were placed in the left Jugular vein for infusions of saline and drugs, in the right jugular vein to right atrium to monitor right atrial pressure, and in the carotid artery for the collection of blood samples and to monitor mean arterial pressure. A PE-90 catheter was placed in the bladder for urine collection.
# Experiments were conducted in three groups in normal rats: ANP group (n=4), CNP group (n=4), and VNP group (n=4). VNP also was studied in SHR rats (n=4). Intravenous infusions of saline solution (0.9% NaCl) were performed (1 ml/100 gm body weight/hr) through the left jugular vein catheter. After completion of surgery, rats were allowed to stabilize for 30 minutes. In each group, a 15-min baseline period followed. After the baseline period, saline solution (0.9% NaCl) was administered in a bolus fashion (0.1 ml) and was followed by a 15-min period. After the saline period, the peptide (ANP, CNP or VNP) was administered in a bolus fashion (0.1 ml) at 5 μg/kg which was followed by a 15-min period. This was followed by a second bolus (0.1 ml) at 50 μg/kg and a 15-min period. After a 30-min washout, a 15-min recovery period followed. During each experimental period, mean arterial pressure (MAP), heart rate (HR), and right atrial pressure (RAP) were measured. At the midpoint of baseline, second bolus fashion (50 μg/kg) and recovery periods, blood was sampled for plasma cGMP. At the end of each period, urine was measured for volume (UV), and samples were stored for electrolytes and cGMP analysis.
# Blood for plasma cGMP analysis was collected into EDTA tubes, immediately placed on ice, and centrifuged at […] at 4° C. Plasma was separated and stored at -20° C. until assay. Urine for cGMP determination was heated to >90° C. before storage. Plasma and urine cGMP were determined by a specific RIA as previously described by A. L. Steiner et al., J. Hypertension, 5 (Suppl. 5) 551-553 (1987).
# [1] = system: isolated vessels in congestive heart failure dogs; assay: Preliminary studies: vasorelaxation in isolated vessels of congestive heart failure dogs; set-up: species or system dog
# [2] = system: isolated normal canine blood vessels; assay: Organ chamber isometric force: relaxation of phenylephrine-contracted vessel rings; set-up: species or system dog; conditions: for relaxation: maximal dose (3×10^-6 M); for maximal response, percent change in tension from a contraction to phenylephrine: peptide 3 × 10^-6 M, mean ± SEM
# Method: as §1
# Rings cut from femoral, saphenous, renal and pulmonary arteries and veins obtained from random source mongrel dogs (anesthetized with 30 mg/kg pentobarbital sodium intravenously) were suspended for the measurement of isometric force in organ chambers filled with aerated (95% O2 and 5% CO2) modified Krebs-Ringer bicarbonate solution (composition in mM: 118.3 NaCl, 4.7 KCl, 2.5 CaCl2, 1.2 MgSO4, 1.2 KH2 PO4, 25.0 NaHCO3, 0.026 calcium sodium EDTA, and 11.1 dextrose; control solution) at 37° C. In one-half rings, the endothelium was removed by gently rubbing the intimal surface with a cotton swab wetted with control solution. Each ring was stretched to the optimal point on its length-tension curve as determined by the tension developed to norepinephrine (3×10^-7 M) at each level of stretch. The presence of endothelium was determined at the beginning of the experiment by a relaxation to acetylcholine (10^-6 M) during a contraction to norepinephrine at optimal length. The maximal tension of each ring was determined by norepinephrine (10^-4 M). To study responses to ANP, CNP and VNP, the rings were contracted with phenylephrine (10^-6 M). These contractions averaged 30-40% of the maximal contraction to norepinephrine. The peptides were added cumulatively once the contraction had stabilized.
# The following commercially available drugs were used: acetylcholine chloride (Sigma Chemical, St. Louis, Mo.), human ANP and human CNP (Peninsula Laboratories, Belmont, Calif.), L-norepinephrine bitartrate (Sigma), phenylephrine bitartrate (Sigma). All drugs were dissolved in distilled water immediately prior to study, and the concentrations are reported as the final molar concentration (M) in the organ chamber.
# [3] = system: vessels pre-contracted with endothelin; assay: Relaxation of vessels pre-contracted with endothelin
# [4] = normal rats, high dose (50 μg/kg) bolus
structure (smiles),measurement,setting,value
"CC[C@H](C)[C@@H]1NC(=O)[C@H](CCCNC(=N)N)NC(=O)[C@H](CC(=O)O)NC(=O)[C@H](CC(C)C)NC(=O)[C@H](CCCCN)NC(=O)[C@H](CC(C)C)NC(=O)CNC(=O)[C@H](Cc2ccccc2)NC(=O)[C@@H](NC(=O)CNC(=O)[C@H](CCCCN)NC(=O)[C@H](CO)NC(=O)[C@H](CC(C)C)NC(=O)CN)CSSC[C@@H](C(=O)N[C@@H](CC(N)=O)C(=O)N[C@@H](CO)C(=O)N[C@@H](Cc2ccccc2)C(=O)N[C@@H](CCCNC(=N)N)C(=O)N[C@@H](Cc2ccc(O)cc2)C(=O)O)NC(=O)CNC(=O)[C@H](CC(C)C)NC(=O)CNC(=O)[C@H](CO)NC(=O)[C@H](CCSC)NC(=O)[C@H](CO)NC(=O)CNC1=O [VNP, vasonatrin peptide]",natriuretic action (in words),"normal rats; in vivo, rat",potent natriuretic effect
same,change in MAP and RAP (in words),normal rats; [4],significant decrease; also recorded: significantly decreased
same,"change in urine flow, sodium excretion, plasma cGMP and urinary cGMP volume (in words)",normal rats; [4],significantly increased
same,"increase in urine flow, sodium excretion and urinary cGMP volume compared between peptides",normal rats; [4],"significantly higher with VNP than those of CNP, but were less than those of ANP"
same,MAP mean arterial pressure,"normal rats; normal rats, iv bolus 5 μg/kg, 15-min period",93 ± 15 mmHg
same,HR heart rate,"normal rats; normal rats, iv bolus 5 μg/kg",393 ± 20 beats/min
same,RAP right atrial pressure,"normal rats; normal rats, iv bolus 5 μg/kg",-3.5 ± 0.9 mmHg
same,UKV urine potassium excretion,"normal rats; normal rats, iv bolus 5 μg/kg",3.3 ± 1.4 µmol/min
same,UNaV urine sodium excretion,"normal rats; normal rats, iv bolus 5 μg/kg",5.3 ± 1.9 µmol/min
same,UV urine volume,"normal rats; normal rats, iv bolus 5 μg/kg",32.2 ± 7.5 µL/min
same,UcGMPV urine cGMP volume,"normal rats; normal rats, iv bolus 5 μg/kg",113 ± 27 pmol/min
same,HR heart rate,"normal rats; normal rats, iv bolus 50 μg/kg",408 ± 25 beats/min
same,PcGMP plasma cGMP,"normal rats; normal rats, iv bolus 50 μg/kg",33.3 ± 8.7 pmol/mL
same,RAP right atrial pressure,"normal rats; normal rats, iv bolus 50 μg/kg",-4.3 ± 0.8 mmHg
same,UKV urine potassium excretion,"normal rats; normal rats, iv bolus 50 μg/kg",11.9 ± 4.7 µmol/min
same,UNaV urine sodium excretion,"normal rats; normal rats, iv bolus 50 μg/kg",22.5 ± 2.2 µmol/min
same,UV urine volume,"normal rats; normal rats, iv bolus 50 μg/kg",136 ± 5.5 µL/min
same,UcGMPV urine cGMP volume,"normal rats; normal rats, iv bolus 50 μg/kg",961 ± 82 pmol/min
same,MAP mean arterial pressure,"normal rats; normal rats, recovery period after 30-min washout",93 ± 15 mmHg
same,HR heart rate,"normal rats; normal rats, recovery period",390 ± 20 beats/min
same,PcGMP plasma cGMP,"normal rats; normal rats, recovery period",4.4 ± 1.4 pmol/mL
same,RAP right atrial pressure,"normal rats; normal rats, recovery period",-2.9 ± 0.9 mmHg
same,UKV urine potassium excretion,"normal rats; normal rats, recovery period",1.3 ± 0.6 µmol/min
same,UNaV urine sodium excretion,"normal rats; normal rats, recovery period",0.9 ± 0.3 µmol/min
same,UV urine volume,"normal rats; normal rats, recovery period",8.4 ± 2.7 µL/min
same,UcGMPV urine cGMP volume,"normal rats; normal rats, recovery period",88 ± 48 pmol/min
same,MAP mean arterial pressure,"normal rats; normal rats, second iv bolus 50 μg/kg, 15-min period",79 ± 15 mmHg
same,vasorelaxing actions (in words),[1],potent vasorelaxing actions
same,relaxation,[2]; femoral and saphenous arteries,90-100%
same,"maximal response, percent change in tension from a contraction to phenylephrine","[2]; femoral artery, with endothelium, phenylephrine 10^-6 M",91 ± 4%
same,"maximal response, percent change in tension from a contraction to phenylephrine","[2]; femoral artery, without endothelium",89 ± 5%
same,"maximal response, percent change in tension from a contraction to phenylephrine","[2]; femoral vein, with endothelium",81 ± 6%
same,"maximal response, percent change in tension from a contraction to phenylephrine","[2]; femoral vein, without endothelium",86 ± 6%
same,relaxation,[2]; femoral veins,90%
same,order of potency,[2]; pulmonary arteries,ANP=VNP>CNP
same,"maximal response, percent change in tension from a contraction to phenylephrine","[2]; pulmonary artery, with endothelium",57 ± 5%
same,"maximal response, percent change in tension from a contraction to phenylephrine","[2]; pulmonary artery, without endothelium",63 ± 7%
same,"maximal response, percent change in tension from a contraction to phenylephrine","[2]; pulmonary vein, with endothelium",71 ± 2%
same,"maximal response, percent change in tension from a contraction to phenylephrine","[2]; pulmonary vein, without endothelium",84 ± 3%
same,order of potency,[2]; pulmonary veins without endothelium,VNP>CNP>ANP
same,"maximal response, percent change in tension from a contraction to phenylephrine","[2]; renal artery, with endothelium",52 ± 4%
same,"maximal response, percent change in tension from a contraction to phenylephrine","[2]; renal artery, without endothelium",62 ± 12%
same,"maximal response, percent change in tension from a contraction to phenylephrine","[2]; renal vein, with endothelium",65 ± 6%
same,"maximal response, percent change in tension from a contraction to phenylephrine","[2]; renal vein, without endothelium",90 ± 4%
same,"maximal response, percent change in tension from a contraction to phenylephrine","[2]; saphenous artery, with endothelium",73 ± 3%
same,"maximal response, percent change in tension from a contraction to phenylephrine","[2]; saphenous artery, without endothelium",81 ± 5%
same,"maximal response, percent change in tension from a contraction to phenylephrine","[2]; saphenous vein, with endothelium",60 ± 11%
same,"maximal response, percent change in tension from a contraction to phenylephrine","[2]; saphenous vein, without endothelium",89 ± 6%
same,relaxation,[2]; saphenous veins,90%
same,potency for relaxation (order),[2]; systemic arteries,VNP>ANP≥CNP
same,"relaxation, % of the contraction to phenylephrine","[2]; systemic arteries (femoral, saphenous and renal)",50-90%
same,potency for relaxation (order),[2]; systemic veins,VNP>CNP>ANP
same,relaxation of pre-contracted vessels (in words),[3],able to relax

# From US5583108A, “Vasonatrin peptide and analogs thereof” (Mayo Foundation for Medical Education and Research, priority 1994, dated 1996)
